Key:
[1] = molecular target: T1, Alpha-2A adrenergic receptor (Homo sapiens, UniProt P08913); assay type: functional, cell-based
T1 sequence (P08913 whole entry): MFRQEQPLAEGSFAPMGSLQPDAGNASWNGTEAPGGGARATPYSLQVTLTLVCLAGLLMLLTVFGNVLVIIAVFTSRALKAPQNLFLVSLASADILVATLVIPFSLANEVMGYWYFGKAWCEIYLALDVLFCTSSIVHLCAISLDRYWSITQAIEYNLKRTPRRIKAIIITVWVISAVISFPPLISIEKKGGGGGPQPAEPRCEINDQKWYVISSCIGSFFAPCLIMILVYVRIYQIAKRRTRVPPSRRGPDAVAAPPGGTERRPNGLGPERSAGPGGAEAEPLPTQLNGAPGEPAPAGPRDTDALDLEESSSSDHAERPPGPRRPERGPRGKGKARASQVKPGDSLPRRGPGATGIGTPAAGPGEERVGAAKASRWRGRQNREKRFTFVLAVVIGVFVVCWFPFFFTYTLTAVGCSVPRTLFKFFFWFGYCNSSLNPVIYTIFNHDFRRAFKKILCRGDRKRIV

Vasopressin V2 receptor = Vasopressin V2 receptor (Homo sapiens, UniProt P30518)
[2] = molecular target: T2, Cholecystokinin receptor type A (Homo sapiens, UniProt P32238)
T2 sequence (P32238 whole entry): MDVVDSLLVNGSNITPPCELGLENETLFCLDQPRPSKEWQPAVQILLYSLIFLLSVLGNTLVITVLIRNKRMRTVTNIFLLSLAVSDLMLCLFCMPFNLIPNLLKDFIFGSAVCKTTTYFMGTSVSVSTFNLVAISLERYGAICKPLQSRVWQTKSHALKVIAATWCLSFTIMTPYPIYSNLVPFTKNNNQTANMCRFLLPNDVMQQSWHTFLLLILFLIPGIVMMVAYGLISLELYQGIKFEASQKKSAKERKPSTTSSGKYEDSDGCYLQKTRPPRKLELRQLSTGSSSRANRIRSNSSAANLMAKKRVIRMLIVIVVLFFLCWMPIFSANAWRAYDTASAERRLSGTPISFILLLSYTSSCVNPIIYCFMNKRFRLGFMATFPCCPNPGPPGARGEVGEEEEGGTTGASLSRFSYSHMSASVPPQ

Cannabinoid receptor 1 = Cannabinoid receptor 1 (Homo sapiens, UniProt P21554); assay type: functional, cell-based
[3] = molecular target: Glutamate receptor ionotropic, NMDA 1 (Rattus norvegicus, UniProt P35439)
[4] = molecular target: T3, 5-hydroxytryptamine receptor 2C (Homo sapiens, UniProt P28335)
T3 sequence (P28335 whole entry): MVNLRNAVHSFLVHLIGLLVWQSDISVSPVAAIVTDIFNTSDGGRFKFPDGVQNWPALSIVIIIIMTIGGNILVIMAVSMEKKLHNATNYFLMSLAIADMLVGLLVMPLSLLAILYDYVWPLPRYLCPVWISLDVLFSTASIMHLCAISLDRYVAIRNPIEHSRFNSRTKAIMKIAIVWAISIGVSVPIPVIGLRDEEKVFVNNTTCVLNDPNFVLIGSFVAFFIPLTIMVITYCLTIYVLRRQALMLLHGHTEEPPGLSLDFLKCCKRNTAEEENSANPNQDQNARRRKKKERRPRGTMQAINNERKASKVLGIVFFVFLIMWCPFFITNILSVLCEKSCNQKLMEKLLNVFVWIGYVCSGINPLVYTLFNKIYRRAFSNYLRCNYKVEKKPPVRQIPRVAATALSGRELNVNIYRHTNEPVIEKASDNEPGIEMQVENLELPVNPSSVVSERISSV

Melanocortin receptor 3 = Melanocortin receptor 3 (Homo sapiens, UniProt P41968)
[5] = molecular target: T4, Neuropeptide Y receptor type 1 (Homo sapiens, UniProt P25929)
T4 sequence (P25929 whole entry): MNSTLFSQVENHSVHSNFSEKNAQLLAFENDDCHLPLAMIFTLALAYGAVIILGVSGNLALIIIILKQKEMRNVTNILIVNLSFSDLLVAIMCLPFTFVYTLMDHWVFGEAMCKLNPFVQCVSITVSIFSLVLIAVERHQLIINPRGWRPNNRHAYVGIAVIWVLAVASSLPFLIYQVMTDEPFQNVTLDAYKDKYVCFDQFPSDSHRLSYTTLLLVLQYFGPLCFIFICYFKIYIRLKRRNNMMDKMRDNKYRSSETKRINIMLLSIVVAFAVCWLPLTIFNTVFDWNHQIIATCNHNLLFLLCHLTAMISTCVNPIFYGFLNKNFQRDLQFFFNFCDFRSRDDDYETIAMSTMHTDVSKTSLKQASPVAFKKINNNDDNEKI

[6] = molecular target: Sodium-dependent dopamine transporter (Homo sapiens, UniProt Q01959)
[7] = molecular target: T5, Amine oxidase [flavin-containing] A (Homo sapiens, UniProt P21397); assay type: functional
T5 sequence (P21397 whole entry): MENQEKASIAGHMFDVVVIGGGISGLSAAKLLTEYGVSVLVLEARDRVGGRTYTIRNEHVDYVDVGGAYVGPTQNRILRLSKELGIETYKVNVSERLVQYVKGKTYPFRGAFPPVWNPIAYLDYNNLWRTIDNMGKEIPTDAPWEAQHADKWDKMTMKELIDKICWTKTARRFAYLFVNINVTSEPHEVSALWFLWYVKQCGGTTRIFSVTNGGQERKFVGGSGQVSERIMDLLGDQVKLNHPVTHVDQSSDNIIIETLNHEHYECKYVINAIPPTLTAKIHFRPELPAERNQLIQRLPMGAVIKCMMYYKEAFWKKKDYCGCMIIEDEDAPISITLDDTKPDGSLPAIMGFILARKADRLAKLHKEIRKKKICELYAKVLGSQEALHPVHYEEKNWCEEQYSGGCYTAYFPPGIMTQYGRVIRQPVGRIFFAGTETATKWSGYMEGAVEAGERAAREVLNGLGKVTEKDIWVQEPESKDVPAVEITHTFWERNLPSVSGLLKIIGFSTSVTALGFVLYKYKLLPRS

Histamine H3 receptor = Histamine H3 receptor (Homo sapiens, UniProt Q9Y5N1)
[8] = molecular target: Beta-2 adrenergic receptor (Homo sapiens, UniProt P07550)
Note: assay procedure not described here.

Vasopressin V2 receptor, sequence (P30518 whole entry): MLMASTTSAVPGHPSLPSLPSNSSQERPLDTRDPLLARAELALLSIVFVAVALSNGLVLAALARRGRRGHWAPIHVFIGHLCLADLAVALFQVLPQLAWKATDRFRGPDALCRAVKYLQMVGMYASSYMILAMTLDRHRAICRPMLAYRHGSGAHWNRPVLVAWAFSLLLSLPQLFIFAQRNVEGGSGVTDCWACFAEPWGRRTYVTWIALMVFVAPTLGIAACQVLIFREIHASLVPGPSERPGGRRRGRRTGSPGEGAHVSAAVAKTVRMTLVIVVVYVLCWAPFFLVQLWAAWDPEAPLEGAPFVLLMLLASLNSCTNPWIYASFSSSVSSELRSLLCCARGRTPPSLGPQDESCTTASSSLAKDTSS
Beta-2 adrenergic receptor, sequence (P07550 whole entry): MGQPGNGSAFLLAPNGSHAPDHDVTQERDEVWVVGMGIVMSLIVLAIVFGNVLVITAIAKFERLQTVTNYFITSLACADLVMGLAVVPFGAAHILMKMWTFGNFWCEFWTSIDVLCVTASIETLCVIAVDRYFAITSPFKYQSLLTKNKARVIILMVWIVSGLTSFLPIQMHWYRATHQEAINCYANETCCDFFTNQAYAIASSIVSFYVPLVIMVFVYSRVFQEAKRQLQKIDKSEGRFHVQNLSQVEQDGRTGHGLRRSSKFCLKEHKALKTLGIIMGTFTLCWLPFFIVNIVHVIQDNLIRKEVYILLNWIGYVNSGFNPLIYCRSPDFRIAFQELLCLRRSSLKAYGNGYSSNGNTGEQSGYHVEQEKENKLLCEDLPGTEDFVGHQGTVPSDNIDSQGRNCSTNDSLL
Cannabinoid receptor 1, sequence (P21554 whole entry): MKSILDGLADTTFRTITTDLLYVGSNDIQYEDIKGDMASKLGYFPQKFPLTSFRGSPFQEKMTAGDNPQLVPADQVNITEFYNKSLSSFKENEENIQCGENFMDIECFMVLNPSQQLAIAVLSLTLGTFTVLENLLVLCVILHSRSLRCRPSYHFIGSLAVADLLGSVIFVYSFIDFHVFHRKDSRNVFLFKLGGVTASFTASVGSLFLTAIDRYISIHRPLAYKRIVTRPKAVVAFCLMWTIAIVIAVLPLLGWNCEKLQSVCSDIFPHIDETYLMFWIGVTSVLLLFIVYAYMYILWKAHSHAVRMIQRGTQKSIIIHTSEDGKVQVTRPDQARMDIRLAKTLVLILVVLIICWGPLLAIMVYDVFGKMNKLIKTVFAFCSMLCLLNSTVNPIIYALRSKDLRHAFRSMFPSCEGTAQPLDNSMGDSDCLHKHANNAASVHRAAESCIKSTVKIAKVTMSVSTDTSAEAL
Histamine H3 receptor, sequence (Q9Y5N1 whole entry): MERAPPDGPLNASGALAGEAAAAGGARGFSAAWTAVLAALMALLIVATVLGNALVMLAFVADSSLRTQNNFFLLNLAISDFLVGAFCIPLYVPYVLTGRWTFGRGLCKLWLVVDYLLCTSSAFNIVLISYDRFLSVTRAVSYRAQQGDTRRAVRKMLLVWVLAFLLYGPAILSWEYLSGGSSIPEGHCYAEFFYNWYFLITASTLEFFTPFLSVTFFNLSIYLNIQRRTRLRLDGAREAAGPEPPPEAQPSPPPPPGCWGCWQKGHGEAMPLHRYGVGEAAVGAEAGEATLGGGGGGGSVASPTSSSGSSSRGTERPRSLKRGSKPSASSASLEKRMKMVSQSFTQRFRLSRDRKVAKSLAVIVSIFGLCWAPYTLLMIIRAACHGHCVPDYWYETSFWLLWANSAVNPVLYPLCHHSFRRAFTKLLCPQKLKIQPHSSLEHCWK
Sodium-dependent dopamine transporter, sequence (Q01959 whole entry): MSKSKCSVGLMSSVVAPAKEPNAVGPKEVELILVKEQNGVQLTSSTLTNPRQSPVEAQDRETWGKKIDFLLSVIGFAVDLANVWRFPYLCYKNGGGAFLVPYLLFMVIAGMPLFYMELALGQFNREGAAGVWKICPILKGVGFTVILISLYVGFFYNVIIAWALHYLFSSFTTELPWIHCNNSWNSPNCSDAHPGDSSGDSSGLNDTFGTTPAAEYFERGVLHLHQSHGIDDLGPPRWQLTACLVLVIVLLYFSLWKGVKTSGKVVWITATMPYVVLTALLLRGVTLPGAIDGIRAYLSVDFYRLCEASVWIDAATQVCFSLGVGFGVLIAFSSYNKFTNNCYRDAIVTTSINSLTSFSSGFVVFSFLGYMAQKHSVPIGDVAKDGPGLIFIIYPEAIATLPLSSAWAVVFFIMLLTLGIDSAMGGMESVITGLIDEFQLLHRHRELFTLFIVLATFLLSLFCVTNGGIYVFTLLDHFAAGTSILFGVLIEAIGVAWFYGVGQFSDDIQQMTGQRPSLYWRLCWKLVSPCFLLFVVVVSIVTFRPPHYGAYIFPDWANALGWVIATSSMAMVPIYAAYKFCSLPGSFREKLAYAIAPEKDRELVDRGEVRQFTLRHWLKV
Melanocortin receptor 3, sequence (P41968 whole entry): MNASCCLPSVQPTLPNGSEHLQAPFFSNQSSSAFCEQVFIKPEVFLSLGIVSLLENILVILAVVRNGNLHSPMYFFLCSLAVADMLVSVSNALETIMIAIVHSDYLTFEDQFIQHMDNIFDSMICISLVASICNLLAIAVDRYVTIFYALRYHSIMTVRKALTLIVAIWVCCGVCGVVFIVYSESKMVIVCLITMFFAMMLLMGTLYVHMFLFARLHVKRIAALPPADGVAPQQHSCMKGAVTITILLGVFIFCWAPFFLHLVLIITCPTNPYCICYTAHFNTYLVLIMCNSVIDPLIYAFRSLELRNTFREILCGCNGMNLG

Compound	AC50 [1]	AC50 (Vasopressin V2 receptor)	AC50 [2]	AC50 (Cannabinoid receptor 1)	AC50 [3]	AC50 [4]	AC50 (Melanocortin receptor 3)	AC50 [5]	AC50 [6]	AC50 [7]	AC50 (Histamine H3 receptor)	AC50 [8]
O=C(O)/C=C/c1ccc(Cn2ccnc2)cc1 [OZAGREL]	> 30 µM	> 30 µM	> 30 µM	> 30 µM	> 30 µM	> 30 µM	> 30 µM	> 30 µM	> 30 µM	> 30 µM	> 30 µM	–
CC1(C)O[C@@H]2C[C@H]3[C@@H]4CCC5=CC(=O)C=C[C@]5(C)[C@H]4[C@@H](O)C[C@]3(C)[C@]2(C(=O)CO)O1 [DESONIDE]	> 10 µM	> 10 µM	> 10 µM	> 30 µM	> 10 µM	> 30 µM	> 10 µM	> 10 µM	> 10 µM	> 10 µM	–	> 10 µM
CC(C)C(=O)c1c(C(C)C)nn2ccccc12 [IBUDILAST]	> 30 µM	> 30 µM	> 30 µM	> 30 µM	> 30 µM	> 30 µM	> 30 µM	> 30 µM	> 30 µM	–	> 30 µM	> 30 µM
CC(=O)O[C@H]1CC[C@@]2(C)C(=CC[C@@H]3[C@@H]2CC[C@]2(C)C(c4cccnc4)=CC[C@@H]32)C1 [ABIRATERONE ACETATE]	> 30 µM	–	> 30 µM	> 30 µM	–	> 30 µM	> 30 µM	–	> 30 µM	> 30 µM	> 30 µM	> 10 µM
CCOC(=O)[N-]c1cn(N2CCOCC2)n[o+]1 [MOLSIDOMINE]	> 30 µM	> 30 µM	> 30 µM	> 30 µM	> 30 µM	> 30 µM	> 30 µM	> 30 µM	> 30 µM	–	> 30 µM	> 30 µM
CC(C)OC(=O)CCC/C=C\C[C@@H]1[C@@H](CC[C@@H](O)CCc2ccccc2)[C@H](O)C[C@@H]1O [LATANOPROST]	> 30 µM	> 30 µM	> 30 µM	> 30 µM	> 30 µM	> 30 µM	> 30 µM	> 30 µM	> 30 µM	> 30 µM	> 30 µM	–
CN1CCN(CC/C=C2/c3ccccc3Sc3ccc(S(=O)(=O)N(C)C)cc32)CC1 [THIOTHIXENE]	> 10 µM	20 µM	> 30 µM	> 30 µM	> 10 µM	2.8 µM	> 30 µM	> 30 µM	6.26 µM	> 10 µM	–	> 10 µM
Nc1nc(N)nc(-c2cc(Cl)ccc2Cl)n1 [IRSOGLADINE]	> 30 µM	> 30 µM	> 30 µM	> 30 µM	–	–	> 30 µM	> 30 µM	> 30 µM	> 30 µM	> 30 µM	> 30 µM
CCCc1nc(C(C)(C)O)c(C(=O)OCc2oc(=O)oc2C)n1Cc1ccc(-c2ccccc2-c2nnn[nH]2)cc1 [OLMESARTAN MEDOXOMIL]	> 10 µM	> 30 µM	> 50 µM	> 30 µM	> 10 µM	> 10 µM	> 50 µM	> 10 µM	> 30 µM	> 10 µM	–	> 10 µM
C/C(O)=C(\C#N)C(=O)Nc1ccc(C(F)(F)F)cc1 [TERIFLUNOMIDE]	> 30 µM	–	> 30 µM	> 30 µM	–	> 30 µM	> 30 µM	–	> 30 µM	4.9 µM	> 30 µM	–
NCC(=O)CCC(=O)O [AMINOLEVULINIC ACID]	> 30 µM	> 30 µM	> 30 µM	> 30 µM	> 30 µM	> 30 µM	> 30 µM	> 30 µM	> 30 µM	> 30 µM	> 30 µM	–
CO/N=C(\C(=O)N[C@@H]1C(=O)N2C(C(=O)O)=C(CSc3nnnn3C)CS[C@H]12)c1csc(N)n1 [CEFMENOXIME]	> 30 µM	> 30 µM	> 30 µM	> 30 µM	–	–	> 30 µM	> 30 µM	> 30 µM	> 30 µM	> 30 µM	–
O=C(NCCNCC(O)COc1ccc(O)cc1)N1CCOCC1 (stereo not drawn) [XAMOTEROL]	> 30 µM	> 30 µM	> 30 µM	> 30 µM	> 30 µM	> 30 µM	> 30 µM	> 30 µM	> 30 µM	> 30 µM	> 30 µM	–
CCC1(CC)C(=O)NCC(C)C1=O (stereo not drawn) [METHYPRYLON]	> 30 µM	> 30 µM	> 30 µM	> 30 µM	> 30 µM	> 30 µM	> 30 µM	> 30 µM	> 30 µM	> 30 µM	> 30 µM	–
CCN1CCN(C(=O)N[C@@H](C(=O)N[C@@H]2C(=O)N3C(C(=O)O)=C(CSc4nnnn4C)CS[C@H]23)c2ccc(O)cc2)C(=O)C1=O [CEFOPERAZONE]	> 30 µM	> 30 µM	> 30 µM	> 30 µM	> 30 µM	> 30 µM	> 30 µM	> 30 µM	> 30 µM	> 30 µM	> 30 µM	–
CCN(CC)C(=O)N[C@H]1C[C@@H]2c3cccc4[nH]cc(c34)C[C@H]2N(C)C1 [TERGURIDE]	> 30 µM	> 30 µM	> 30 µM	> 30 µM	> 30 µM	0.21 µM	> 30 µM	> 30 µM	> 30 µM	> 30 µM	> 30 µM	–

— ChEMBL document CHEMBL5291721, “A preclinical secondary pharmacology resource illuminates target-adverse drug reaction associations of marketed drugs” (Nat Commun, 2023)
